Laboratory results published in patent publication US11999716B2, “WDR5 inhibitors and modulators” (priority 2018, dated 2024).

These compounds were tested against WDR5 (Homo sapiens, UniProt P61964) (assay: biochemical). Settings: Ki for Inhibition of WDR5 by TR-FRET assay.
Format: binding

Work on `CCn1cc(-c2cc(Cn3ccsc3=N)cc3c2CCN(Cc2cc(C)nn2C)C3=O)c(C(F)(F)F)n1` [Example 106, 2-((1,3-Dimethyl-1H-pyrazol-5-yl)methyl)-5-(1-ethyl-3-(trifluoromethyl)-1H-pyrazol-4-yl)-7-((2-iminothiazol-3(2H)-yl)methyl)-3,4-dihydroisoquinolin-1(2H)-one] yielded a Ki of under 0.05 nM.

Same assay, conditions: […]; 10mer-Thr-FAM probe 150 nM; Tb-anti-HIS 1 nM; 60 min, room temperature; read-out: Ki for Inhibition of WDR5 by TR-FRET assay

Going from `COc1cc(CN2CCc3c(cc(Cn4ccn(C)c4=N)cc3-c3ccc(F)cc3C)C2=O)cc(OC)c1` [Example 29, 2-(3,5-Dimethoxybenzyl)-5-(4-fluoro-2-methylphenyl)-7-((2-imino-3-methyl-2,3-dihydro-1H-imidazol-1-yl)methyl)-3,4-dihydroisoquinolin-1(2H)-one] to `COc1cc(CN2CCc3c(cc(CN4CCCC4=N)cc3-c3cccnc3C(F)(F)F)C2=O)cc(OC)c1` [Example 107, 2-(3,5-Dimethoxybenzyl)-7-((2-iminopyrrolidin-1-yl)methyl)-5-(2-(trifluoromethyl)pyridin-3-yl)-3,4-dihydroisoquinolin-1(2H)-one], the Ki rises from under 0.05 nM to 0.11 nM. The first binds more tightly here.

These compounds were tested on MV4:11 human cancer cell lines (assay: Cellular viability / anti-proliferative activity, CellTiter-Glo, 5 day protocol). Settings: Homo sapiens, MV4-11, 120 h, MV4:11 cells; 5 day incubation; CellTiter-Glo; mean of minimum two replicates; read-out: GI50 on cellular proliferation of MV4:11 human cancer cell lines.
Format: cell-based
Procedure, shortened: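 Cells seeded at 200 per well (7200 cells/mL) with compound in 2-fold serial dilutions from 30 μM top (22 points), 0.3% DMSO final. Viability read by CellTiter-Glo luminescence after 5 days; GI50 from sigmoidal dose-response fit, mean of at least two replicates.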

First: COc1ccnc([C@H](C2CC2)N2CCc3c(cc(Cn4ccnc4)cc3-c3cn(C)nc3C(F)(F)F)C2=O)c1 [Example 252, (S)-7-((1H-Imidazol-1-yl)methyl)-2-(cyclopropyl(4-methoxypyridin-2-yl)methyl)-5-(1-methyl-3-(trifluoromethyl)-1H-pyrazol-4-yl)-3,4-dihydroisoquinolin-1(2H)-one]
Second: CCn1cc(-c2cc(Cc3nccn3C)cc3c2CCN([C@@H](C)c2cc(OC)ccn2)C3=O)c(C(F)(F)F)n1 [Example 254, (S)-5-(1-Ethyl-3-(trifluoromethyl)-1H-pyrazol-4-yl)-2-(1-(4-methoxypyridin-2-yl)ethyl)-7-((1-methyl-1H-imidazol-2-yl)methyl)-3,4-dihydroisoquinolin-1(2H)-one]
The GI50 of the first is lower: under 50 nM for the first, 1340 nM for the second.

`Cc1nccn1Cc1cc2c(c(-c3cn(C)nc3C(F)(F)F)c1)CCN(c1ccc(F)cc1OCC1CC1)C2=O` [Example 253, 2-(2-(Cyclopropylmethoxy)-4-fluorophenyl)-7-((2-methyl-1H-imidazol-1-yl)methyl)-5-(1-methyl-3-(trifluoromethyl)-1H-pyrazol-4-yl)-3,4-dihydroisoquinolin-1(2H)-one] and `Cc1nccn1Cc1cc2c(c(-c3cn(C)nc3C(F)(F)F)c1)CCN(c1ccccc1OC(F)(F)F)C2=O` [Example 255, 7-((2-Methyl-1H-imidazol-1-yl)methyl)-5-(1-methyl-3-(trifluoromethyl)-1H-pyrazol-4-yl)-2-(2-(trifluoromethoxy)phenyl)-3,4-dihydroisoquinolin-1(2H)-one] are within 1.5-fold of each other in GI50: 2090 nM for the first, 2790 nM for the second.

`Cc1nccn1Cc1cc2c(c(-c3cn(C)nc3C(F)(F)F)c1)CCN(c1ccccc1OC(C)C)C2=O` [Example 256, 2-(2-Isopropoxyphenyl)-7-((2-methyl-1H-imidazol-1-yl)methyl)-5-(1-methyl-3-(trifluoromethyl)-1H-pyrazol-4-yl)-3,4-dihydroisoquinolin-1(2H)-one] was tested, and the GI50 was 3860 nM.

Same assay, conditions: Homo sapiens, MV4-11, 120 h, read-out: GI50 on cellular proliferation of MV4:11 human cancer cell lines

First: COc1cc(CN2CCc3c(cc(Cn4ccn(C)c4=N)cc3-c3ccc(F)cc3C)C2=O)cc(OC)c1 [Example 29, 2-(3,5-Dimethoxybenzyl)-5-(4-fluoro-2-methylphenyl)-7-((2-imino-3-methyl-2,3-dihydro-1H-imidazol-1-yl)methyl)-3,4-dihydroisoquinolin-1(2H)-one]
Second: CCn1cc(-c2cc(Cn3ccsc3=N)cc3c2CCN(Cc2cc(C)nn2C)C3=O)c(C(F)(F)F)n1 [Example 106, 2-((1,3-Dimethyl-1H-pyrazol-5-yl)methyl)-5-(1-ethyl-3-(trifluoromethyl)-1H-pyrazol-4-yl)-7-((2-iminothiazol-3(2H)-yl)methyl)-3,4-dihydroisoquinolin-1(2H)-one]
The GI50 of the first is 2.9-fold lower: 63 nM for the first, 182 nM for the second.

`COc1ccnc([C@H](C2CC2)N2CCc3c(cc(Cn4ccnc4C)cc3-c3cn(C)nc3C(F)(F)F)C2=O)c1` [Example 251, (S)-2-(Cyclopropyl(4-methoxypyridin-2-yl)methyl)-7-((2-methyl-1H-imidazol-1-yl)methyl)-5-(1-methyl-3-(trifluoromethyl)-1H-pyrazol-4-yl)-3,4-dihydroisoquinolin-1(2H)-one] and `CCn1cc(-c2cc(Cc3cncn3C)cc3c2CCN([C@@H](C)c2cc(OC)ccn2)C3=O)c(C(F)(F)F)n1` [Example 257, (S)-5-(1-Ethyl-3-(trifluoromethyl)-1H-pyrazol-4-yl)-2-(1-(4-methoxypyridin-2-yl)ethyl)-7-((1-methyl-1H-imidazol-5-yl)methyl)-3,4-dihydroisoquinolin-1(2H)-one] cannot be ordered by GI50: under 50 nM for the first, under 50 nM for the second.
